Reference: paper PMC9486951, “Tetramate Derivatives by Chemoselective Dieckmann Ring Closure of threo-Phenylserines and Their Antibacterial Activity” (The Journal of Organic Chemistry, 2022)
Converted amounts (≈) assume the structure as drawn. Where two headings read alike, the source gives them in different places.

What was measured:
[1] = system: methicillin-resistant Staphylococcus aureus (MRSA); experiment: MIC determination by broth dilution assay against MRSA; assay type: cell-based
Protocol: (§1) With access to these derivatives routinely available, an assessment of their antibacterial activity was made by measuring minimum inhibitory concentration (MIC) values (Table S6) against two example organisms, methicillin-resistant Staphylococcus aureus (MRSA) and E. coli. […] By contrast, a more polar substituent at the C7-position (pyran 12t) compromised the antibacterial activity (125 μg/mL). […] Compound 13b had the same activity as 12g at 1.00 μg/mL. Overall, increasing lipophilicity corresponded to higher potency against MRSA. […]
(§2) Screening of compounds were performed by Oxford Antibiotic Group, Austria. For MIC determination by broth dilution assay, the samples were tested in a primary 96 well plates screening assay, in duplicate. The compounds were diluted in Mueller Hinton Broth (MHB) for bacterial screening to a stock solution of 1000 µg/mL, serial diluted and overlaid with a microbe solution in a concentration of 10^4 CFU/ml. […]

[2] = system: E. coli; experiment: MIC determination by broth dilution assay against E. coli; assay type: cell-based
Protocol: as §1, §2

[3] = system: Hela cell line; experiment: Cytotoxicity assay (Alamar blue), Hela; assay type: cell-based, human; conditions: Homo sapiens, HeLa; read-out: cell lines EC50, Hela
Protocol: (§3) The selectivity of these compounds for activity against prokaryotic cells over mammalian cells was analyzed by considering their cytotoxicity against Hela, heK-293, CaCo, and MDCK […] cell lines, allowing estimation of the therapeutic ratio [EC50Hela cell line/MIC(S. aureus)] (Table 3). […]
Screening of compounds were performed by Oxford Antibiotic Group, Austria. For MIC determination by broth dilution assay, the samples were tested in a primary 96 well plates screening assay, in duplicate. The compounds were diluted in Mueller Hinton Broth (MHB) for bacterial screening to a stock solution of 1000 µg/mL, serial diluted and overlaid with a microbe solution in a concentration of 10^4 CFU/ml. The plates were incubated for […]
(§4) For cytotoxicity testing, the synthesized compounds were tested against four different cell lines: HeLa, HEK 293, MDCK and CaCo. The cells were seeded in a 96 well plate and incubated until a confluence of 80% was achieved (under physiological conditions - 37°C, 5% CO2 and 95% humidity). The samples were tested by serial dilution in triplicates with starting concentration of 250 µg/mL. After 24 and 48 hours the survival of cells was evaluated by microscope and measured with Alamar blue. IC50 values were obtained from the calibration curves. […]

[4] = system: heK-293 cell line; experiment: Cytotoxicity assay (Alamar blue), heK-293; assay type: cell-based; conditions: Homo sapiens, HEK293; read-out: cell lines EC50, heK-293
Protocol: as §3
(§5) Screening of compounds were performed by Oxford Antibiotic Group, Austria. […]
as §4

[5] = system: CaCo cell line; experiment: Cytotoxicity assay (Alamar blue), CaCo; assay type: cell-based; conditions: Homo sapiens; read-out: cell lines EC50, CaCo
Protocol: as §3, §5, §4

[6] = system: MDCK cell line; experiment: Cytotoxicity assay (Alamar blue), MDCK; assay type: cell-based; conditions: read-out: cell lines EC50, MDCK
Protocol: as §3, §5, §4

[7] = Staphylococcus aureus, MRSA, Table S6, read-out: MIC
[8] = Staphylococcus aureus, MRSA, broth dilution, read-out: MIC against MRSA
[9] = Staphylococcus aureus, MRSA, Table 3, read-out: MIC(S. aureus)
[10] = Staphylococcus aureus, MRSA, Table S5, against S. aureus, read-out: MIC

Row | SMILES | MIC [1, 8] [mg/L] | MIC [1, 10] [mg/L] | MIC ([1]; Table S6) [mg/L] | other results
1 | Cc1ccc([C@H]2O[C@@H](C(C)(C)C)N3C(=O)C(C(=O)NC45CC6CC(CC(C6)C4)C5)=C(O)[C@H]23)cc1 (mixture of isomers) [13a] | 3.9 | – | – | MIC [1, 7]: 3.9 mg/L; MIC ([1]; Table S5, against S. aureus): 3.9 mg/L
2 | CC(C)(C)[C@@H]1O[C@H](c2ccc(F)cc2)[C@H]2C(O)=C(C(=O)NC34CC5CC(CC(C5)C3)C4)C(=O)N21 (mixture of isomers) [compound 20] | 1 | – | – | MIC [1, 7]: 1 mg/L; MIC ([1]; Table S5, against S. aureus): 1.0 mg/L
3 | CC(C)(C)[C@@H]1O[C@H](c2ccc(Cl)cc2)[C@H]2C(O)=C(C(=O)NC34CC5CC(CC(C5)C3)C4)C(=O)N21 (mixture of isomers) [compound 21] | 7.8 | – | – | MIC [1, 7]: 7.8 mg/L; MIC ([1]; Table S5, against S. aureus): 7.8 mg/L
4 | CC(C)(C)[C@@H]1O[C@H](c2ccc(Br)cc2)[C@H]2C(O)=C(C(=O)NC34CC5CC(CC(C5)C3)C4)C(=O)N21 (mixture of isomers) [compound 22] | 0.49 | – | – | MIC [1, 7]: 0.49 mg/L; MIC ([1]; Table S5, against S. aureus): 0.49 mg/L
5 | CCOC(=O)C1=C(O)[C@@H]2[C@@H](c3ccccc3)O[C@@H](C(C)(C)C)N2C1=O (racemic) [10a] | – | – | – | antibacterial activity against MRSA (in words) [1]: no activity; antibacterial activity against E. coli (in words) [2]: no activity
6 | CCOC(=O)C1=C(O)[C@@H]2[C@@H](c3ccc(F)cc3)O[C@@H](C(C)(C)C)N2C1=O (racemic) [10c] | – | – | – | MIC [1, 9]: 31.3 mg/L (≈ 86.1 µM); MIC [1, 7]: 31.3 mg/L (≈ 86.1 µM); EC50 [3]: 31.3 mg/L (≈ 86.1 µM); EC50 [4]: 62.5 mg/L (≈ 172 µM); EC50 [5]: 62.5 mg/L (≈ 172 µM); EC50 [6]: 62.5 mg/L (≈ 172 µM)
7 | CCOC(=O)C1=C(O)[C@@H]2[C@@H](c3ccc(Cl)cc3)O[C@@H](C(C)(C)C)N2C1=O (racemic) [10d] | – | – | – | MIC [1, 9]: 15.6 mg/L (≈ 41.1 µM); MIC [1, 7]: 15.6 mg/L (≈ 41.1 µM); EC50 [3]: 31.3 mg/L (≈ 82.4 µM); EC50 [4]: 31.3 mg/L (≈ 82.4 µM); EC50 [5]: 31.3 mg/L (≈ 82.4 µM); EC50 [6]: 62.5 mg/L (≈ 165 µM)
8 | CCOC(=O)C1=C(O)[C@@H]2[C@@H](c3ccc(Br)cc3)O[C@@H](C(C)(C)C)N2C1=O (racemic) [10e] | – | – | – | MIC [1, 9]: 15.6 mg/L (≈ 36.8 µM); MIC [1, 7]: 15.6 mg/L (≈ 36.8 µM); EC50 [3]: 31.3 mg/L (≈ 73.8 µM); EC50 [4]: 62.5 mg/L (≈ 147 µM); EC50 [5]: 62.5 mg/L (≈ 147 µM); EC50 [6]: 62.5 mg/L (≈ 147 µM)
9 | CC(C)(C)[C@@H]1O[C@H](c2ccccc2)[C@H]2C(O)=C(C(=O)Nc3ccccc3)C(=O)N21 (racemic) [12b] | 7.8 (≈ 19.9 µM) | 7.8 (≈ 19.9 µM) | 7.8 (≈ 19.9 µM) | –
10 | CC(C)(C)[C@@H]1O[C@H](c2ccccc2)[C@H]2C(O)=C(C(=O)Nc3ccc(Br)cc3)C(=O)N21 (racemic) [12c] | 3.9 (≈ 8.27 µM) | 3.9 (≈ 8.27 µM) | 3.9 (≈ 8.27 µM) | –
11 | CC(C)(C)[C@@H]1O[C@H](c2ccccc2)[C@H]2C(O)=C(C(=O)Nc3ccc([N+](=O)[O-])cc3)C(=O)N21 (racemic) [12d] | 3.9 (≈ 8.92 µM) | 3.9 (≈ 8.92 µM) | 3.9 (≈ 8.92 µM) | antibacterial activity against MRSA (in words) [1]: good bioactivity
12 | CC(C)(C)[C@@H]1O[C@H](c2ccccc2)[C@H]2C(O)=C(C(=O)Nc3ccc(C(F)(F)F)cc3)C(=O)N21 (racemic) [12e] | 1 (≈ 2.17 µM) | 1 (≈ 2.17 µM) | 1.0 (≈ 2.17 µM) | –
13 | Cc1cc(Cl)ccc1NC(=O)C1=C(O)[C@@H]2[C@@H](c3ccccc3)O[C@@H](C(C)(C)C)N2C1=O (racemic) [12g] | 1 (≈ 2.27 µM) | 1 (≈ 2.27 µM) | 1.0 (≈ 2.27 µM) | –
14 | Cc1ccc(NC(=O)C2=C(O)[C@@H]3[C@@H](c4ccccc4)O[C@@H](C(C)(C)C)N3C2=O)c(Cl)c1 (racemic) [12h] | – | 3.9 (≈ 8.85 µM) | 3.9 (≈ 8.85 µM) | –
15 | CC(C)(C)[C@@H]1O[C@H](c2ccccc2)[C@H]2C(O)=C(C(=O)Nc3ccc(C(F)(F)F)cc3Cl)C(=O)N21 (racemic) [12i] | – | 0.49 (≈ 0.99 µM) | 0.49 (≈ 0.99 µM) | antibacterial activity against MRSA (in words) [1]: high activities
16 | CC(C)(C)[C@@H]1O[C@H](c2ccccc2)[C@H]2C(O)=C(C(=O)Nc3ccc(Cl)cc3C(F)(F)F)C(=O)N21 (racemic) [12j] | – | 3.9 (≈ 7.88 µM) | 3.9 (≈ 7.88 µM) | –
17 | Cc1ccc(NC(=O)C2=C(O)[C@@H]3[C@@H](c4ccccc4)O[C@@H](C(C)(C)C)N3C2=O)c(C)c1 (racemic) [12k] | – | 3.9 (≈ 9.27 µM) | 3.9 (≈ 9.27 µM) | –
18 | Cc1cc(F)ccc1NC(=O)C1=C(O)[C@@H]2[C@@H](c3ccccc3)O[C@@H](C(C)(C)C)N2C1=O (racemic) [12l] | – | 1 (≈ 2.36 µM) | 1.0 (≈ 2.36 µM) | antibacterial activity against MRSA (in words) [1]: high activities
19 | CCCCCCc1ccc(NC(=O)C2=C(O)[C@@H]3[C@@H](c4ccccc4)O[C@@H](C(C)(C)C)N3C2=O)cc1 (racemic) [12m] | 0.49 (≈ 1.03 µM) | 0.49 (≈ 1.03 µM) | 0.49 (≈ 1.03 µM) | –
20 | CC(C)(C)[C@@H]1O[C@H](c2ccccc2)[C@H]2C(O)=C(C(=O)NC3CCCCC3)C(=O)N21 (racemic) [12n] | 1 (≈ 2.51 µM) | 1 (≈ 2.51 µM) | 1.0 (≈ 2.51 µM) | –
21 | CC(C)(C)[C@@H]1O[C@H](c2ccccc2)[C@H]2C(O)=C(C(=O)NC3CCCCCC3)C(=O)N21 (racemic) [12o] | 1 (≈ 2.42 µM) | 1 (≈ 2.42 µM) | 1.0 (≈ 2.42 µM) | –
22 | CCCCCCNC(=O)C1=C(O)[C@@H]2[C@@H](c3ccccc3)O[C@@H](C(C)(C)C)N2C1=O (racemic) [12p] | 3.9 (≈ 9.74 µM) | 3.9 (≈ 9.74 µM) | 3.9 (≈ 9.74 µM) | –
23 | CCCCCCCCCNC(=O)C1=C(O)[C@@H]2[C@@H](c3ccccc3)O[C@@H](C(C)(C)C)N2C1=O (racemic) [12q] | 0.49 (≈ 1.11 µM) | 0.49 (≈ 1.11 µM) | 0.49 (≈ 1.11 µM) | –
24 | CCCCCCCCCCCCNC(=O)C1=C(O)[C@@H]2[C@@H](c3ccccc3)O[C@@H](C(C)(C)C)N2C1=O (racemic) [12r] | 0.49 (≈ 1.01 µM) | 0.49 (≈ 1.01 µM) | 0.49 (≈ 1.01 µM) | –
25 | CC(C)(C)[C@@H]1O[C@H](c2ccccc2)[C@H]2C(O)=C(C(=O)Nc3ccc(C4CCCCC4)cc3)C(=O)N21 (racemic) [12s] | 1 (≈ 2.11 µM) | 1 (≈ 2.11 µM) | 1.0 (≈ 2.11 µM) | –
26 | CC(C)(C)[C@@H]1O[C@H](c2ccccc2)[C@H]2C(O)=C(C(=O)NC3CCOCC3)C(=O)N21 (racemic) [12t] | 125 (≈ 312 µM) | 125 (≈ 312 µM) | 125 (≈ 312 µM) | –
27 | CC(C)(C)[C@@H]1O[C@H](c2ccccc2)[C@H]2C(O)=C(C(=O)NCc3ccccc3)C(=O)N21 (racemic) [12u] | 15.6 (≈ 38.4 µM) | 15.6 (≈ 38.4 µM) | 15.6 (≈ 38.4 µM) | –
28 | CC(C)(C)NC(=O)C1=C(O)[C@@H]2[C@@H](c3ccccc3)O[C@@H](C(C)(C)C)N2C1=O (racemic) [12v] | – | 3.9 (≈ 10.5 µM) | 3.9 (≈ 10.5 µM) | antibacterial activity against MRSA (in words) [1]: comparable activity with the hexyl 12p
29 | Cc1ccc([C@H]2O[C@@H](C(C)(C)C)N3C(=O)C(C(=O)Nc4ccc(Cl)cc4C)=C(O)[C@H]23)cc1 (racemic) [13b] | 1 (≈ 2.2 µM) | – | – | MIC [1, 7]: 1 mg/L (≈ 2.2 µM); MIC ([1]; Table S5, against S. aureus): 1.0 mg/L (≈ 2.2 µM)
30 | CCOC(=O)C1=C(O)[C@@H]2[C@@H](c3ccc(C)cc3)O[C@@H](C(C)(C)C)N2C1=O [10b] | – | – | – | antibacterial activity against MRSA (in words) [1]: no activity; antibacterial activity against E. coli (in words) [2]: no activity
